Data set [1] is described as follows: Molar enthalpy of transition or fusion. The following applies: Crystal; DSC.
The conditions of data set [2]: Crystal; DTA.

SMILES strings stand for the structures. Numbers after ± are expanded uncertainties.

As for `C1COCCOCCOCCOCCOCCO1.O.O.O.O.O.O.O.O.O.O.O.O` [1,4,7,10,13,16-hexaoxacyclooctadecane dodecahydrate], in data set [1], the “Molar enthalpy of transition or fusion” value is 4.66 ± 0.932 kcal/mol. Besides, the Normal melting temperature in data set [2] was determined as 9.90 ± 0.53 °C.
The corresponding values for `C1COCCOCCOCCOCCOCCO1.O.O.O.O.O.O.O.O` [1,4,7,10,13,16-hexaoxacyclooctadecane octahydrate] are 2.8 ± 0.574 kcal/mol and 17.10 ± 0.53 °C.
As to `C1COCCOCCOCCOCCOCCO1` [1,4,7,10,13,16-hexaoxacyclooctadecane], the “Molar enthalpy of transition or fusion” value in data set [1] came out at 8.48 ± 0.741 kcal/mol. Besides, the Normal melting temperature in data set [2] was 39.10 ± 0.53 °C.

The values above are taken from the NIST ThermoML archive (doi:10.1021/je301087w).
